Experimental findings from ChEMBL document CHEMBL1201862, “PubChem BioAssay data set” (2004) are described below.

The nature of assay [1]: intracellular Trypanosoma cruzi inhibitors in host cells – cell-based, plate reader, cherry-pick samples, set 3, dose response (AID 651818).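 Also: compounds incubated with infected cells for about four days.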 Type of assay: functional.
Assay [2] addresses T1, Zinc finger protein mex-5 (Caenorhabditis elegans, UniProt Q9XUB2).
T1 sequence (Q9XUB2 whole entry): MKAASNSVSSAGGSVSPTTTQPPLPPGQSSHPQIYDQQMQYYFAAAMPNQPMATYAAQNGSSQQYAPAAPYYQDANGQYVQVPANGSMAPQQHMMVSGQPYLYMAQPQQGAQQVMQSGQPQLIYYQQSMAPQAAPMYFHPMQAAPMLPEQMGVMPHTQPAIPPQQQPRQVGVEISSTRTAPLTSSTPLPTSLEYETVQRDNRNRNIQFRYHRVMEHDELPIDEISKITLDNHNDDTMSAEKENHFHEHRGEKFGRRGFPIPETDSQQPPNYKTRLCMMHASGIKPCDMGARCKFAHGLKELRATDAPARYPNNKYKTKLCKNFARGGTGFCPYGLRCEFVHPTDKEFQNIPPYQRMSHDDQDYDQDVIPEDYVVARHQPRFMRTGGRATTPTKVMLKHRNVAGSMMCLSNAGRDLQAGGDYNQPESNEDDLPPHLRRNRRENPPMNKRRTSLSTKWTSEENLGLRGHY
The assay can be described thus: MEX-5/TCR-2 RNA interaction inhibitors, dose response, biochemical, C. elegans, fluorescence polarization (AID 1960).

Assay [3] addresses T2, RNA-binding protein pos-1 (Caenorhabditis elegans, UniProt G5EF15).
T2 sequence (G5EF15 whole entry): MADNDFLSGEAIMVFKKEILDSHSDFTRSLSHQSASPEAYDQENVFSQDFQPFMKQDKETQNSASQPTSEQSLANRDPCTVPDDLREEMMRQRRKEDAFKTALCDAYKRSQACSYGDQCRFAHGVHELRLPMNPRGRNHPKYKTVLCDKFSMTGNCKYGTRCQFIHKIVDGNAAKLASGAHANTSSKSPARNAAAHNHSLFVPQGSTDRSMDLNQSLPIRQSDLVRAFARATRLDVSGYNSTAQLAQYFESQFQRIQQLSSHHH
Description: inhibitors of POS-1/mex-3 RNA binding, dose response, biochemical, fluorescence polarization (AID 1964). (Polarisation of emitted light reports the rotation of a fluorescent probe.)

Assay [4] is described as follows: cytotoxicity toward NIH3T3 fibroblasts, dose response, counter-screen, cell-based, ATP luminescence, mouse fibroblasts (AID 2010).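 Also: cells exposed to compound for about 90 hours before reading.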 Type of assay: functional.
Assay [5] can be described thus: inhibitors of intracellular T. cruzi replication, confirmation, NIH3T3 host cells, beta-gal luminescence (AID 2044).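 Also: intracellular parasites grown in NIH/3T3 mouse fibroblasts as host cells; luminescent beta-galactosidase reporter signal from transgenic T. cruzi replicating inside host cells; inhibitors lower the luminescence signal.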 Type of assay: functional, cell-based.
Assay [6] is described as follows: cytotoxicity in HEK-293T cells, dose response, cytotoxicity control for TCR NF-kB inhibitor project, luminescence, T-cell screen hits (AID 489026).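 Also: cells exposed to compound about 14 hours before the viability readout.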 Type of assay: functional, cell-based.
The nature of assay [7]: MC4R antagonists, dose response, counter-screen for LGR2 antagonist project, cell-based, plate reader, cherry pick (AID 743444).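 Also: transfected HEK 293 cells stimulated with alpha-MSH peptide; potency of inhibitors of the alpha-MSH evoked signal.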 Type of assay: functional. (In general: The purpose of a counterscreen is to sort out artefacts and off-target activity.)
Assay [8] can be described thus: LGR2 antagonists, dose response, cell-based, HEK293, CRE-luciferase reporter, cherry pick, set 2 (AID 743343).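 Also: transfected cells were stimulated with diluted bursicon conditioned medium after compound addition.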 The format is functional. On the technique in general: Reporter assays use an easily measured gene product as a stand-in for the process of interest.
The target of the next assay is Cytochrome P450 2C9 (Homo sapiens, UniProt P11712).
A further assay addresses Cytochrome P450 2C19 (Homo sapiens, UniProt P33261). The assay can be described thus: Cytochrome panel assay with activity outcomes. Panel member name: p450-cyp2c19 Compounds with AC50 equal or less than 10 uM are considered active. Type of assay: functional. The note with it: read-out: AC50.
Assay [9] concerns the target T3, Corticotropin-releasing factor receptor 2/Corticotropin-releasing factor-binding protein (Homo sapiens, UniProt P24387+Q13324).
T3 sequence (Q13324 whole entry): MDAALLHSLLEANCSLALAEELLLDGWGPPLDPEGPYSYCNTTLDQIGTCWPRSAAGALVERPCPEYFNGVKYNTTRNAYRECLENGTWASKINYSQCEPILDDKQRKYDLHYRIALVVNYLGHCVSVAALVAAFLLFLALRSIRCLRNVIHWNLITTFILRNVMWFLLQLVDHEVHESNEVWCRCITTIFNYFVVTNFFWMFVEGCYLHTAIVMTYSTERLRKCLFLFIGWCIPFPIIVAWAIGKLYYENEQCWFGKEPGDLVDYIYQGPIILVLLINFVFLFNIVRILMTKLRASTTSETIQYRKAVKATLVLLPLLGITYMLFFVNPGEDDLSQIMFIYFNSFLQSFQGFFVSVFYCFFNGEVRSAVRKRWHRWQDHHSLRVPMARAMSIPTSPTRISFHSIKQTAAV
T3 sequence (P24387 whole entry): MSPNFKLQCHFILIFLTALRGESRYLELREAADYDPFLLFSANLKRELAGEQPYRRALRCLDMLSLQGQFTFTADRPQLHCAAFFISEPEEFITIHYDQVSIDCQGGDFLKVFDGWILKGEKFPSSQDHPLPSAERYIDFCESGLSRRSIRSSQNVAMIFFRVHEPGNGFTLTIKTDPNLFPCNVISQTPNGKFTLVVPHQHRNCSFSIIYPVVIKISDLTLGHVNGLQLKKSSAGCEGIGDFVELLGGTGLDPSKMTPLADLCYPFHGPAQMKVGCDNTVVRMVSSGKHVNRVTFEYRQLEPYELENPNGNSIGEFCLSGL
Description: activators of CRF receptor 2 with binding protein – uHTS hits, confirmation (AID 602473). The format is functional. The note with it: read-out: EC50_Mean.

In assay [10] the target is T4, Polyadenylate-binding protein 1 (Homo sapiens, UniProt P11940). Description: PABP1 MLLE–PAM2 binding inhibitor potency, dose response, biochemical, fluorescence polarization, FITC-PAM2 peptide (AID 602259). The format is functional. The note with it: read-out: IC50_Mean.
Assay [11] deals with T4, Polyadenylate-binding protein 1. The assay can be described thus: PABP1 MLLE–PAM2 interaction inhibitors, dose response, miRNA deadenylation inhibitor project, biochemical, fluorescence polarization, Cy5-PAM2 peptide, secondary (AID 602260). Type of assay: functional. Conditions: read-out: IC50_Mean.
The nature of assay [12]: HepG2 cell cytotoxicity, dose response, cytotoxicity control for Shn3 inhibitor project, CellTiter-Glo, cherry-picked (AID 624134). Type of assay: functional, cell-based.
Assay [13] can be described thus: Shn3 3'UTR reporter inhibitors, dose response, cell-based, Clone20 osteoblasts, firefly luciferase, cherry-picked (AID 624132).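 Also: firefly luciferase luminescence from reporter carrying the Shn3 3'UTR in osteoblasts.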 Type of assay: functional.
A short description of assay [14]: control 3'UTR Renilla luciferase suppression, dose response, counter-screen for Shn3 inhibitor project, cell-based, Clone20-Shn3RL, cherry-picked (AID 624133). Type of assay: functional.

Calls of active or inactive are those of the source.

T4 sequence (P11940 whole entry): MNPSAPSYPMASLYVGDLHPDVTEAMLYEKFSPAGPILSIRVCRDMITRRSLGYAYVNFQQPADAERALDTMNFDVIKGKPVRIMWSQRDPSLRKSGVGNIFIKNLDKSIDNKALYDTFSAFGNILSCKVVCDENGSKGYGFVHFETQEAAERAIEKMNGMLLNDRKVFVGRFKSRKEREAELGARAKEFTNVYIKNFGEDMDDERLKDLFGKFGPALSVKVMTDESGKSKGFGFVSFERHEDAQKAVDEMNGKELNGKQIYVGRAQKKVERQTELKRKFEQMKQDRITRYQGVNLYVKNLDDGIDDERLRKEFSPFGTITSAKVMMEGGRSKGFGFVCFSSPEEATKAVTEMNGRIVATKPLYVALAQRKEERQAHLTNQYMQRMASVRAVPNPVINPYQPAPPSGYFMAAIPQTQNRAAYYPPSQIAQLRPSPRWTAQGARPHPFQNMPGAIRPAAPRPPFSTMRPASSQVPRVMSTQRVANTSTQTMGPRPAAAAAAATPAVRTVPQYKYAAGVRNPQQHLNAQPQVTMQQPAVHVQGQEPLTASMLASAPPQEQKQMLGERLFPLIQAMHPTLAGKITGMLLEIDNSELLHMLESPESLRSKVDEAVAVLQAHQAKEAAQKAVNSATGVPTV
Cytochrome P450 2C9, sequence (P11712 whole entry): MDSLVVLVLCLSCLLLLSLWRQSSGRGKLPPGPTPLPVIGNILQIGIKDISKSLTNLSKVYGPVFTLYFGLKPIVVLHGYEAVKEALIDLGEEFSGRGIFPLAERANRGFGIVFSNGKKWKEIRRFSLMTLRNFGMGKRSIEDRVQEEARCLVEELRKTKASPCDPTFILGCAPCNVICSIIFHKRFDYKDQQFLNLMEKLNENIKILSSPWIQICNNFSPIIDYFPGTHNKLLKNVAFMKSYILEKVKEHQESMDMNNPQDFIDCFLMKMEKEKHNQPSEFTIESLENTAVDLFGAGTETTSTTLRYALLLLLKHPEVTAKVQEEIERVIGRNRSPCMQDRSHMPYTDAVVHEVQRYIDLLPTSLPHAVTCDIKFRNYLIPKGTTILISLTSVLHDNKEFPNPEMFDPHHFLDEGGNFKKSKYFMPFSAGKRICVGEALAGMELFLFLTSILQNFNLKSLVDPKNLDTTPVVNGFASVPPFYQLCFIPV
Cytochrome P450 2C19, sequence (P33261 whole entry): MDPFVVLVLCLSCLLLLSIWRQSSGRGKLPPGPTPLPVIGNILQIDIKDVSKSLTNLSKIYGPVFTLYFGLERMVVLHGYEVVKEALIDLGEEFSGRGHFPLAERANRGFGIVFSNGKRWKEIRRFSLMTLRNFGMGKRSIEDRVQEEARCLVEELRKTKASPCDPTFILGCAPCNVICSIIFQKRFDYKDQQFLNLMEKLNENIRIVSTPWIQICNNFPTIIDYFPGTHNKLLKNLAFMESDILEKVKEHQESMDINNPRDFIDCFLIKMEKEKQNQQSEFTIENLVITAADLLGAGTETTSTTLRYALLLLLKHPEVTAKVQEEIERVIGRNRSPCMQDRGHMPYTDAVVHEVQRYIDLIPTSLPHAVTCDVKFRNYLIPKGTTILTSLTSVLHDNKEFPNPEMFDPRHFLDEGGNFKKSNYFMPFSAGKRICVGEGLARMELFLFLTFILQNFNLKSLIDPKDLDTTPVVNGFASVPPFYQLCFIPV

In the case of `C[C@@H]1CN([C@H](C)CO)C(=O)Cc2cc(NC(=O)Nc3ccc(C(F)(F)F)cc3)ccc2O[C@@H]1CN(C)Cc1ccccc1`, the AC50 in assay [1] is 1.94 µM (active).
Still for that read-out and setting: then `C[C@H](CO)N1C[C@H](C)[C@H](CN(C)Cc2ccc(Cl)c(Cl)c2)Oc2ccc(NC(=O)Nc3ccc4c(c3)OCO4)cc2CC1=O`, with 6.16 µM (active); and `C[C@H]1CN([C@@H](C)CO)C(=O)c2cc(NC(=O)Nc3ccc(C(F)(F)F)cc3)ccc2O[C@H]1CN(C)Cc1ccc(Oc2ccccc2)cc1`, with 3.42 µM (active).
With `O=C(COC(=O)CCc1c[nH]c(=O)[nH]1)Nc1ccccc1Cl`, the EC50 in assay [2] was 53.5 µM (active); in assay [3], > 300 µM (not active).
`Cc1nn(-c2ccccc2)c(N2CCCC2)c1/C=N/NC(=O)c1cc(-c2cccnc2)nc2ccccc12`: the EC50 in assay [2] is > 300 µM (not active); in [4], 32.8 µM (active); in assay [3] it was > 300 µM (not active); in assay [5] it was 0.306 µM (active).
Consider `O=C(N/N=C/c1cc(I)cc(I)c1O)c1ccccc1O`, for which, in assay [1], the AC50 is 3.17 µM (active).
As to `O=C(c1ccc(C[S+]([O-])c2ccccc2Cl)o1)N1CCN(c2ccccn2)CC1` (configuration not stated), the IC50 in [6] is > 80 µM (inactive).
Take `Cc1noc(C)c1NC(=O)Nc1cccc2c1O[C@H](CN(C)Cc1ccc(C(=O)Nc3ccccc3N)cc1)[C@@H](C)CN([C@@H](C)CO)C2=O`: the AC50 in assay [1] was 3.76 µM (active).
Turning to `CCCC(=O)N1CCCC(c2cc(C(=O)Nc3ccccc3)no2)C1` (configuration not stated), the AC50 was 2.37 µM (active) in assay [7] and 1.89 µM (active) in assay [8].
Consider `CCC(=S)/C=C1\Sc2ccc3ccccc3c2N1CCCS(=O)(=O)O`, for which the EC50 in [2] and in assay [3] was > 300 µM (not active) throughout. For the same compound, the concentration at half-maximal activity (AC50) at Cytochrome P450 2C9 was 20 µM (inconclusive); at Cytochrome P450 2C19, 28.2 µM (inconclusive).
As for `Cc1ccc(S(=O)(=O)Nc2ccc3c(c2)CC(=O)N([C@H](C)CO)C[C@@H](C)[C@H](CN(C)Cc2ccc(Cl)c(Cl)c2)O3)cc1`, the AC50 in [1] was 2.04 µM (active).
Same read-out and setting: the result for `C[C@@H]1CN([C@H](C)CO)C(=O)c2cccc(NC(=O)Nc3ccccc3)c2O[C@H]1CN(C)Cc1ccc(C(=O)Nc2ccccc2N)cc1` reads 2.02 µM (active).
With `C[C@@H]1CN([C@@H](C)CO)C(=O)c2cc(NS(=O)(=O)c3ccc(F)cc3)ccc2O[C@H]1CN(C)Cc1ccc(-c2ccccc2)cc1`, the AC50 in [7] was 20.9 µM (active); in [8], 45.7 µM (active).
Turning to `CN1Cc2c(N3CCOCC3)nc(SCc3ccccc3)c(C#N)c2CC1(C)C`, the figures for the EC50 in [9], in assay [4] and in assay [5] were > 53 µM (inactive), > 60 µM (not active) and 0.62 µM (active), respectively. The IC50 in assay [10] and in [11] was > 66 µM (inactive) each time.
`COc1ccc(/C=C2/C(=O)OCc3cc(OC)c(OC)cc32)cc1`: in assay [6], the IC50 is 78.5 µM (inactive).
As to `NC(=O)c1snnc1-c1ccccc1`, the EC50 in assay [2] and in assay [3] was > 300 µM (not active) throughout.
For the compound `C[C@@H]1CN([C@@H](C)CO)C(=O)c2cccc(NC(=O)C3CCCCC3)c2O[C@H]1CN(C)Cc1ccc(Oc2ccccc2)cc1`, in [1], the AC50 was 1.71 µM (active).
For the compound `O=C(Nc1nc(-c2ccccc2)cs1)c1ccc(N2CCOCC2)c([N+](=O)[O-])c1`, the results for the AC50 in [12], in assay [13] and in assay [14] were 1.59 µM (active), 3.75 µM (active) and 3.52 µM (active), respectively. Besides, the EC50 was > 60 µM (inconclusive) in assay [4] and 0.895 µM (active) in assay [5]. For the same compound, in assay [6], the IC50 was 10.2 µM (active).

As a reminder, the AC50 is the concentration giving half of the maximal activity seen.
